In patent publication US20160040240A1, “CACNA1C ALLELE AND TREATMENT OF MOOD DISORDERS” (THE UNIVERSITY OF CHICAGO, priority 2014, published 2016):

Tests used:
[1] = tested on: patient with TS Type 2; assay: Case report: treatment of a patient with Timothy Syndrome type 2 and bipolar disorder; format: in vivo, human
Excerpt: The patient is a person with TS Type 2 (see below) diagnosed in childhood. The patient was referred for research evaluation after diagnosis of BD by one of us (FO). This was confirmed by interview with the patient and their parent, using the Diagnostic Interview for Genetic Studies (DIGS), version 3.0.
Ten months after starting the medication, they were referred to a neurologist, who found depression and prescribed citalopram.
They were restarted on their antidepressant and has been stable for the three years of observation since then. We note that this is not a typical course of BD, and that further observation will be needed to fully define their course.

[2] = verapamil: particularly in males; cited from earlier work
[3] = clinical use; cited from earlier work
[4] = tested on: L-type channel of the Cav1.2 protein; conditions: cited from earlier work
[5] = tested on: neuronal induced pluripotent stem cells (iPSCs) derived from TS patients; conditions: TS patient iPSC-derived neuronal cells; cited from earlier work
[6] = verapamil at 250 mg/d, TS patient

For `[Li]` [Lithium], the tolerability ([1]; given for mood stabilization, complaints of increased lethargy and irritability) was “not well tolerated”.
In the case of `COC(=O)C1=C(C)NC(C)=C(C(=O)OCCN(C)Cc2ccccc2)C1c1cccc([N+](=O)[O-])c1` (stereo not drawn) [Nicardipine], the “penetration into the brain / crossing of the blood-brain barrier” value [2] is given as “satisfactorily crosses” and the common side effects [3] is given as “headache, peripheral edema, dizziness, flushing, asthenia, angina, hypotension, nausea/vomiting, tachycardia, and palpitations”.
In the case of `CC[C@H](CO)Nc1nc(NCc2ccccc2)c2ncn(C(C)C)c2n1` [roscovitine], the “inactivation of the L-type channel” value [4] is given as “enhanced (normalized)”, the “reduction in the proportion of TH-positive neurons” value [5] is given as 68% and the “reversal of excess expression of TH” value [5] is given as “succeeds in reversing”.
With `COc1ccc(CCN(C)CCCC(C#N)(c2ccc(OC)c(OC)c2)C(C)C)cc1OC` (stereo not drawn) [verapamil] the QT interval [1, 6] was “no change”, the “episodes of atrial fibrillation” value [1, 6] was “continued to have some episodes” and the “number of ventricular fibrillation episodes” value [1, 6] was “marked decrease”.
